# Laboratory results published in patent US20220117911A1, “METHODS AND COMPOSITIONS FOR MODULATING BLOOD-BRAIN BARRIER” (INSERM (institut National de la Santé et de la Recherche …, priority 2019, published 2022).
# Where “and” joins values, the source holds several entries; their conditions need not be identical. Identical values can stand only once. Like-named read-outs stand apart in the source and are kept apart here.
# Legend:
# hCMEC/D3 cells [1] = experiment: Tubulogenesis, 3D culture of hCMEC/D3 cells in Matrigel; format: cell-based, human; settings: for increase of closing tube number vs control group: 3 μM CBD
# Method: 3D culture of hCMEC/D3 human BBB endothelial cells was performed using Matrigel (Corning). Matrigel, stored at 4° C. at least 24 h before the assay, was added to a 48-well plate (150 μL/well), and then the plate was incubated at 37° C. for 1 h to allow Matrigel polymerization. […] 500 μL/well fresh complete medium containing cells were distributed in the 48-well plate. After 2 h, 7 h and 24 h incubation, images of the wells in the plate were taken. […] Assays were performed 3 times in triplicate and tubule-like structure lumen count was realized with Image J software.
# TRPV2 = biological target: T1, TRPV2 (Homo sapiens, UniProt Q9Y5S1); experiment: Intracellular Ca2+ signal measurements (Fluo-4-AM) in hCMEC/D3 cells; format: cell-based; settings: for effect on heat-induced [Ca2+]i signals: heat stimulation
# T1 construct: endogenous in cells; host or cells: hCMEC/D3 (human cerebral microvessel endothelial cell line)
# T1 sequence (Q9Y5S1 1-764): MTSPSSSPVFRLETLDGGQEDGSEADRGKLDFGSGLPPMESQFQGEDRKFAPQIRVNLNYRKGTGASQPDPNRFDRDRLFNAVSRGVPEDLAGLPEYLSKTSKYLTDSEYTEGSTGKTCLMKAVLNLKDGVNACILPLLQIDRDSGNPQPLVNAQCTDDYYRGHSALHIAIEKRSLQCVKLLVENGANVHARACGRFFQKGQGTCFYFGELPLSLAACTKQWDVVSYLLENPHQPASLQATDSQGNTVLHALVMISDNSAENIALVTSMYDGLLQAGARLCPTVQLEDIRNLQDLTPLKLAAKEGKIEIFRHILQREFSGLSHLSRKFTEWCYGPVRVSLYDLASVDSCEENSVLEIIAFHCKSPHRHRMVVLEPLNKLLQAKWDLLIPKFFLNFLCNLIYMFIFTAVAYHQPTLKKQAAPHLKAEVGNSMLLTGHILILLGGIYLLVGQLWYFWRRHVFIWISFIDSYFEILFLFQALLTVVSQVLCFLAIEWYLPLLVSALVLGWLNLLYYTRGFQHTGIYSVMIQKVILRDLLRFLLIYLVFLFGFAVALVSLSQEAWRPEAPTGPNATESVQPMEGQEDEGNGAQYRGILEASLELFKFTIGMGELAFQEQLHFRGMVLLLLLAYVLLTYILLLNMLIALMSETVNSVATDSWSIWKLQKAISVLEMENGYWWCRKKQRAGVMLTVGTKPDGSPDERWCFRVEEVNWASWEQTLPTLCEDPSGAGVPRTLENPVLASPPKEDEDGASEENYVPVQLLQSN
# Method: Fluorescence measurement of intracellular Ca2+ ([Ca2+]i) concentration was performed in accordance with our optimized protocol as below: hCMEC/D3 cells grown at 100% confluence in 24-well plates were loaded with 2 μM of fluorescent marker, Fluo-4-AM (λex=496 nm, λem=516 nm, F14201, Thermo Fisher Scientific) for 45 min at 37° C. in a loading Hank's buffer (500 μL/well). The cells were washed and replaced with 500 μL/well buffer. After additional 10 min of incubation at 37° C., the 24-well plates were placed into a Victor™ X2 fluorescent heated microplate reader (PerkinElmer, France). When applying antagonists, cells were pre-treated with the compound for 5 min before to start fluorescent signals recording. Data are expressed as F1/F0, where F0 is the average fluorescence of the control group (no agent or no heat stimulation application) and F1 is the actual fluorescence at the corresponding time for the treated group. To visualize clearly and directly the effect of the chemical agonist and antagonist on [Ca2+]i change, hCMEC/D3 cells were seeded in a 8-well ibidi (1.5 polymer coverslip, CliniSciences). Then, the μ-Slide containing 250 μL/well normal buffer was placed on the platform of a ZEISS 515 […] confocal microscope (Carl Zeiss), and fluo-4-AM loaded cells were photographed using a time-lapse mode every 60 s during 20 min in a humidified 5% CO2 atmosphere at 37° C. Images of hCMEC/D3 were analysed in Fiji app running Image J software.
# (§1) Data are expressed as mean value±SEM. Statistical analysis was performed using ANOVA with Dunnett a posteriori test to compare different groups with the control. P value<0.05 was considered statistically significant. […] To calculate IC50 of antagonists (RR and TNL), the concentration-response data were fitted to a logistic function as follows: Y=100/(1+10(log IC50−X)×HillSlope) where Y is the normalized response from 100% down to 0%, X is the decimal log of concentration, HillSlope is the slope. Data fitting was all performed in GraphPad Prism 5.01 software.
# hPBMEC monolayers = experiment: TEER of in vitro human BBB model using hPBMECs on Transwell; format: cell-based; settings: 50 μM TNL co-treatment with 1 μM CBD
# Description: Human Primary Brain Microvascular Endothelial Cells (hPBMECs). Brain capillary endothelial cells were isolated from surgical resections of patients with brain tumors. […] In brief, brain capillaries were isolated using soft digestion of patient brain peritumoral tissues and then seeded. Brain primary microvascular endothelial cells were shortly amplified and seeded on Transwell® (Corning) with microporous membranes (pore size: 0.4 μm) in monoculture or in co-culture with the same patient's fresh primary human cultured astrocytes. Cells were cultured in EBM-2 medium (Lonza, Basel, Switzerland) supplemented with 20% serum and growth factors (Sigma).
# After 24 h co-culture, CBD (1 μM) or the same proportion of vehicle was added into the cell inserts. To study the involvement of TRPV2 in CBD-induced effect, cells were pre-treated with 50 μM TNL for 5 min before adding CBD. The TEER values expressed in Ω·cm2 were recorded after 1, 2, 4, 10, 24, 31, 48, 72, 96, 120 h of CBD treatment.
# hCMEC/D3 cells [2] = experiment: Trypan blue exclusion assay (number of viable cells) in hCMEC/D3 cells; format: cell-based, human
# Description: (§2) To study the effects of TRPV2 agonists and antagonists and silencing TRPV2 on cell viability, the 3-(4,5-dimethyl-2-thiazolyl)-2,5-diphenyl-2-H-tetrazolium bromide assay (MTT, Sigma-Aldrich) evaluating cell mitochondrial activity and Trypan blue exclusion assay evaluating living cells were applied. Cells were firstly treated under three conditions mentioned above (Control, negative siRNA, and TRPV2 siRNA) in a 6-well plate. After transfection, cells were re-distributed in a new plate with the same cell number and the same medium in each well. Cell viability were analysed at 0, 24 h, 48 h, 72 h after re-distribution. For MTT assay, cells were re-distributed in 96-well plates at a density of 1×10^4 cells/well, 6 wells per group, one plate four each time. For Trypan blue exclusion assay, cells were re-distributed in 24-well plates at a density of 5×10^4 cells/well. The number of living cells (not stained by Trypan blue) in each well was counted in a TC20™ Automated Cell Counter (Bio-Rad) at each time point, with 3 wells per group.
# hCMEC/D3 cells [3] = experiment: ATP CellTiter-Glo luminescent cell viability assay in hCMEC/D3 cells; format: cell-based, human
# Method: FIG. 4: Pharmacological and genetic inhibition of TRPV2 reverse CBD-induced cell death of hCMEC/D3 cells. […] Cell viability was measured by ATP CellTiter-Glo luminescent cell viability assay. […] Cell viability was measured by ATP CellTiter-Glo luminescent cell viability assay. […] (D) Effect of silencing TRPV2 in CBD-induced cell cytotoxicity. […] Data are expressed as mean±SEM.
# To further validate the involvement of TRPV2 in CBD-induced cell death of hCMEC/D3 cells, pharmacological and genetic inhibition strategies were used. The number of viable cells was evaluated by quantitating total ATP in cells treated by CBD. […] This further indicates the role of TRPV2 at least partly in the CBD-induced cell death.
# hCMEC/D3 cells [4] = experiment: Wound healing migration assay in hCMEC/D3 cells; format: cell-based, human; settings: for effect on cell migration vs control group: 3 μM CBD
# Method: Cell migration was determined with wound healing assay in hCMEC/D3 as reported previously20. Briefly, a standard wound was created by scratching the cell monolayer of hCMEC/D3 cells with a sterile 200 μL plastic pipette tip and line makers were made at the bottom of plates to indicate the wound edges. After removing cell fragments, the cells were incubated at 37° C. with medium containing 5% FBS. In order to minimize avoid the effect of cell proliferation on would healing assay, the medium was absent of bFGF. The areas of the wound and wound repair activity were photographed by phase contrast microscope (Olympus, Japan) at 0, 4, 8, 24 h. […] After 3 days, cells were prepared for wound healing assay with 100% confluence. […] To study the effects of silencing TRPV2 channel on cell proliferation, the cells were firstly treated under three conditions mentioned above (Control, negative siRNA, and TRPV2 siRNA) in a 6-wells plate. After transfection, the cells were re-distributed in 12-well plate at a density of 5×10^5 cells/well in 750 μL complete culture medium. When cells were 100% confluent, the wound healing assay was started following the above-mentioned protocol. Assays were performed 3 times in triplicate.
# hCMEC/D3 cells [5] = experiment: MTT cell viability assay in hCMEC/D3 cells; format: cell-based, human; settings: for CBD-induced proliferation level (MTT, CTL=100%): 3 μM CBD
# Description: as §2
# (§3) After 24 h treatment, the wells were replaced with 100 μL/well fresh complete medium, and 20 μL MTT solution (diluted in PBS buffer, 5 mg·mL-1) was added to each well. And, the plates were kept at 37° C. for an additional 4 h. Then the medium was removed and replaced with 100 μL DMSO per well, in order to dissolve the formazan. The plates were read using a Victor™ X2 microplate reader at 490 nm (PerkinElmer).
# as §1
# [6] = MTT cell viability assay in hCMEC/D3 cells; format: cell-based, human; settings: human, read-out: decrease of cell viability (MTT)
# Description: as §2, §3, §1
smiles,measurement,setting,value
"COc1ccc(/C=C/C(=O)Nc2ccccc2C(=O)O)cc1OC [TNL, tranilast]",effect on CBD-induced tube formation,"hCMEC/D3 cells [1]; 50 μM TNL co-treatment with 3 μM CBD, 7 h",inhibited
same,effect on CBD-induced tube formation,"hCMEC/D3 cells [1]; 50 μM TNL with 3 μM CBD, 24 h",totally reversed
same,effect on CBD-mediated lasting elevation of [Ca2+]i,"TRPV2; 100 μM TNL, 15 μM CBD",fully abolished
same,effect on heat-induced [Ca2+]i signals,TRPV2; TNL 50 or 100 μM,significantly decreased
same,effect on CBD-induced TEER increase,hPBMEC monolayers,totally inhibited
same,effect on CBD-induced increase of viable cells,hCMEC/D3 cells [2]; 50 μM TNL with 3 μM CBD,totally inhibited
same,effect on CBD-induced decrease in cell viability (ATP),"hCMEC/D3 cells [3]; 50 μM TNL, 15 μM CBD, 48 h",partly reversed
same,effect on CBD-induced decrease in cell viability (ATP),"hCMEC/D3 cells [3]; 100 μM TNL, 30 μM CBD, 2 h",reversed
same,effect on pro-migration effect of CBD,"hCMEC/D3 cells [4]; 50 μM TNL co-treatment with 3 μM CBD, 8 h",totally inhibited
CC(C)C[C@H](NC(=O)c1cc2ccccc2s1)C(=O)N1CCN(C(=O)[C@H](CO)NS(=O)(=O)c2ccc(Cl)cc2Cl)CC1 [GSK1016790A],effect on cell viability (MTT),"hCMEC/D3 cells [5]; GSK1016790A 1 μM, 24, 48 or 72 h",did not alter cell viability
"C=C(C)[C@@H]1CCC(C)=C[C@H]1c1c(O)cc(CCCCC)cc1O [CBD, cannabidiol]",increase of closing tube number vs control group,hCMEC/D3 cells [1]; 7 h,41% and 42.0±14.0%
same,increase of closing tube number vs control group,hCMEC/D3 cells [1]; 24 h,73% and 73.0±15.3%
same,increase of [Ca2+]i area under the curve (AUC) vs control,"TRPV2; 30 μM CBD, 20 min incubation",1.5 fold
same,lowest concentration with significant increase of [Ca2+]i AUC,TRPV2; 20 min incubation,0.3 µM
same,increase of the number of viable cells,hCMEC/D3 cells [2]; 3 μM CBD,1.2 fold
same,"CBD-induced proliferation level (MTT, CTL=100%)","hCMEC/D3 cells [5]; 24 h, siNEG cells",125.9±4.0%
same,"CBD-induced proliferation level (MTT, CTL=100%)","hCMEC/D3 cells [5]; 24 h, siTRPV2 cells",113.0±2.1%
same,increase of MTT absorbance vs control group,"hCMEC/D3 cells [5]; 10 μM CBD, 24 h",22.0±1.2%
same,lowest concentration with significantly increased MTT absorbance,hCMEC/D3 cells [5]; 24 h,0.3 µM
same,EC50,"hCMEC/D3 cells [5]; Homo sapiens, hCMEC/D3, 24 h, read-out: EC50 of CBD effect on MTT absorbance (cell viability)",~0.3 µM
same,"cytotoxicity at 24 h, 15 μM",[6]; hCMEC/D3 cells silenced for TRPV2 (TRPV2 siRNA),6%
same,"cytotoxicity at 24 h, 15 μM",[6]; hCMEC/D3 cells treated with negative (NEG) siRNA,27%
same,"cytotoxicity at 24 h, 15 μM",[6]; hCMEC/D3 cells,37%
same,"cytotoxicity at 48 h, 15 μM",[6]; hCMEC/D3 cells,77%
same,"cytotoxicity at 72 h, 15 μM",[6]; hCMEC/D3 cells,78%
same,effect on cell viability (ATP),"hCMEC/D3 cells [3]; 30 μM CBD, 2 h",significantly decreased
same,effect on cell migration vs control group,hCMEC/D3 cells [4]; 4 h post wound,significant pro-migration effect
same,effect on cell migration vs control group,"hCMEC/D3 cells [4]; 8 h post wound, p<0.05",significant increase
"N.N.N.N.N.N.N.N.N.N.N.N.N.N.[Cl-].[Cl-].[Cl-].[Cl-].[Cl-].[Cl-].[O-2].[O-2].[Ru+3].[Ru+3].[Ru+4] [RR, ruthenium red]",effect on CBD-induced elevation of [Ca2+]i,"TRPV2; 10 μM RR pretreatment, 15 μM CBD",fully abolished
same,IC50,"TRPV2; 15 μM CBD, antagonist pre-treatment 5 min, read-out: IC50 of inhibition of CBD-mediated elevation of [Ca2+]i",7.7 ± 1.7 µM
same,effect on heat-induced [Ca2+]i signals,TRPV2; RR,significantly decreased
